Key:
[1] = tested on: α-secretase; test: α-secretase activity (APPsα, western blot); format: cell-based, human; details: APP-H4 culture supernatant, APPsα (FIG. 2)
Description: APP-H4 cells were seeded to a 6-well plate at a density of 12×10^4 cells/1.5 mL, and cultured in Dulbecco's modified Eagle's medium (DMEM; Nacalai Tesque, Inc.) added with 10% fetal bovine serum (FBS; Equitech-Bio, Inc. [Kerrville, Tex., USA]), 100 U/mL penicillin+100 μg/mL streptomycin (Nacalai Tesque, Inc.). After culture for 24 hr, the culture supernatant was removed, and the medium was exchanged with a medium with reduced use amount of serum, Opti-MEM (registered trade mark) I Reduced Serum Medium (Life Technologies Corporation, Carlsbad, Calif., USA) (1 mL). A polyphenol derivative (1 μL) to be the test target was added, and the mixture was further cultured for 48 hr. After culture, the culture supernatant was recovered in a tube (total amount 1.5 mL), centrifuged at 4,000×g/4° C./10 min to remove dead cells, and the supernatant (800 μL) was placed in a new tube. The culture supernatant was preserved at −80° C. before sample preparation. The cells were washed twice with ice-cooled phosphate-buffered saline (PBS). Thereafter, the cells were scraped from the plate using a Cell Scraper. […]
(§1) The signal intensity of the band was quantified using a densitometer LAS-4000 (GE Healthcare UK Ltd.) and image analysis software Science Laboratory 2003 Image Gauge Version 4.23 (Fujifilm Holdings Corporation, Tokyo, Japan). […]

[2] = tested on: neprilysin; test: neprilysin-dependent neutral endopeptidase activity of APP-H4 cell extract (suc-AAF-AMC coupled enzyme assay); format: cell-based, human; details: APP-H4 cells, 48 hr, 1 or 10 μM; activity without polyphenol derivative = 1 (FIG. 1)
Description: (§2) APP-H4 cells were seeded to a 6-well plate at a density of 12×10^4 cells/1.5 mL, and cultured in Dulbecco's modified Eagle's medium (DMEM; Nacalai Tesque, Inc.) added with 10% fetal bovine serum (FBS; Equitech-Bio, Inc. [Kerrville, Tex., USA]), 100 U/mL penicillin+100 μg/mL streptomycin (Nacalai Tesque, Inc.). After culture for 24 hr, the culture supernatant was removed, and the medium was exchanged with a medium with reduced use amount of serum, Opti-MEM (registered trade mark) I Reduced Serum Medium (Life Technologies Corporation, Carlsbad, Calif., USA) (1 mL). A polyphenol derivative (1 μL) to be the test target was added, and the mixture was further cultured for 48 hr. After culture, the culture supernatant was recovered in a tube (total amount 1.5 mL), centrifuged at 4,000×g/4° C./10 min to remove dead cells, and the supernatant (800 μL) was placed in a new tube. The culture supernatant was preserved at −80° C. before sample preparation. The cells were washed twice with ice-cooled phosphate-buffered saline (PBS). Thereafter, the cells were scraped from the plate using a Cell Scraper. The cells were recovered in a 1.5 mL tube and centrifuged at 4,000×g/4° C./10 min. The supernatant was removed and the cells were preserved at −80° C. before sample preparation. The frozen cells were lysed in 40 μL of solubilization buffer containing 1% Triton X-100, protease inhibitor cocktail Complete™ EDTA-free (Roche) and 50 mM Tris-HCl on ice. The cell lysate was incubated on ice for 60 min, centrifuged at 4° C., 21,900×g for 30 min, and the supernatant was recovered and used as a solubilization cell extract.
The total protein concentration of the cell extract was determined by a BCA protein assay kit (Takara) by using BSA as the standard solution. The final concentration of the test compound used was 1 μM or 10 μM, and quantification was performed using each solvent as a control.
The neprilysin-dependent neutral endopeptidase activity of the cell extract was measured fluorescence quantitatively by an indirect coupled enzyme assay method. […] Total 50 μL of the reaction mixture was prepared such that the final concentration was substrate 0.1 mM suc-AAF-AMC, protein in the cell extract 1-6 μg, 100 mM MES buffer (pH 6.5). With the time of addition of the substrate as the start of the reaction, the mixture was reacted at 37° C. for 1 hr, and Phe-AMC was cut out from the substrate by neutral endopeptidase. […] The mixture was reacted at 37° C. for 30 min, and Phe (phenylalanine) residue was cut out from Phe-AMC by aminopeptidase.

[3] = tested on: neprilysin; test: neprilysin expression amount at protein level (western blot, APP-H4 cells); format: cell-based, human; details: 48 hr, standardized to β-actin (FIG. 2)
Description: as §2
The aforementioned cell extract was mixed with 6×SDS-polyacrylamide gel electrophoresis (SDS-PAGE) sample buffer (Nacalai Tesque, Inc.) at a ratio of 5:1, boiled for 5 min, and used as a detection sample of neprilysin, α-secretase and β-secretase proteins.
The PVDF membrane after transfer was washed with a wash buffer and immersed in a blocking buffer to prevent non-specific binding of the primary antibody, and a blocking reaction was performed at room temperature for 1 hr. […] The PVDF membrane after the reaction was washed with the wash buffer and the secondary antibody (horseradish peroxidase conjugated anti-mouse or anti-rabbit IgG (1:10,000; GE Healthcare UK Ltd.)) corresponding to the primary antibody was reacted at room temperature for 1 hr and detection was carried out using the ECL Select Western Blotting Detection Kit (GE Healthcare UK Ltd.).
The signal intensity of the band was quantified using a densitometer LAS-4000 (GE Healthcare UK Ltd.) and image analysis software Science Laboratory 2003 Image Gauge Version 4.23 (Fujifilm Holdings Corporation, Tokyo, Japan).

[4] = target: T1, β-secretase (Homo sapiens, UniProt P56817); test: β-secretase activity (APPsβ, western blot); format: cell-based; details: APP-H4 culture supernatant, APPsβ (FIG. 2)
T1 construct: endogenous in cells; host or cells: APP-H4 cells (culture supernatant analysed)
T1 sequence (P56817 46-501): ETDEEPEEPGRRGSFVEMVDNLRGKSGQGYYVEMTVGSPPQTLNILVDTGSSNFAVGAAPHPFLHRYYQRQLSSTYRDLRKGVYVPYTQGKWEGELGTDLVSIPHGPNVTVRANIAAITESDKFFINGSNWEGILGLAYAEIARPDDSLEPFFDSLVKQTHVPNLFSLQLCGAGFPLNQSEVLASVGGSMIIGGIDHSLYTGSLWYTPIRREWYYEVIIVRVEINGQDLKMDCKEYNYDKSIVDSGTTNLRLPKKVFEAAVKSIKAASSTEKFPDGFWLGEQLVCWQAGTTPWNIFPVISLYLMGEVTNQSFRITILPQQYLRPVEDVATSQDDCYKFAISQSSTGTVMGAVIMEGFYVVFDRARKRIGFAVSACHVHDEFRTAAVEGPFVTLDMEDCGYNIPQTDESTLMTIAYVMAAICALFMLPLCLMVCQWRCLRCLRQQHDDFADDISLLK
Description: as §2, with “extract. […]” for “extract.”
as §1

[5] = tested on: neprilysin, α-secretase, β-secretase; test: overall conclusion on modulation of neprilysin, α-secretase and β-secretase (Example 1); format: cell-based, human; details: conclusion from the results of Example 1
Description: as §2
The neprilysin-dependent neutral endopeptidase activity of the cell extract was measured fluorescence quantitatively by an indirect coupled enzyme assay method. As a neutral endopeptidase substrate, succinyl-Ala-Ala-Phe-7-amino-4-methylcoumarin (suc-AAF-AMC) (1-1315; Bachem) was used. Total 50 μL of the reaction mixture was prepared such that the final concentration was substrate 0.1 mM suc-AAF-AMC, protein in the cell extract 1-6 μg, 100 mM MES buffer (pH 6.5). With the time of addition of the substrate as the start of the reaction, the mixture was reacted at 37° C. for 1 hr, and Phe-AMC was cut out from the substrate by neutral endopeptidase. Then, to the reaction mixture was added a solution (2.5 μL) containing 0.1 mg (0.4 unit equivalent)/mL leucine aminopeptidase (L-5006; Sigma-Aldrich), and 0.2 mM phosphoramidon (4082; Peptide Institute). The mixture was reacted at 37° C. for 30 min, and Phe (phenylalanine) residue was cut out from Phe-AMC by aminopeptidase. Using microplate spectrometer Infinite M-1000 (Tecan), the fluorescence intensity of free AMC was measured by measuring at an excitation wavelength 390 nm and a fluorescence wavelength 460 nm on a half-well size 96-well black plate (#3695; Corning). The neprilysin-dependent neutral endopeptidase activity was determined based on a decrease in the activity due to 10 μM thiorphan (T-6031; Sigma-Aldrich) as a neprilysin specific inhibitor.
After thawing from −80° C., the aforementioned culture supernatant was mixed with 6×SDS-polyacrylamide gel electrophoresis (SDS-PAGE) sample buffer (Nacalai Tesque, Inc.) at a ratio of 5:1, boiled for 5 min, and used as a detection sample of APPsα which is a metabolite of APP by α-secretase and APPsβ which is a metabolite of APP by β-secretase in western blot analysis. […]

[6] = tested on: APP; test: extracellularly secreted APPsα/APPsβ ratio (western blot); format: cell-based, human; details: APP-H4 culture supernatant (FIG. 2)
Description: as §2
After thawing from −80° C., the aforementioned culture supernatant was mixed with 6×SDS-polyacrylamide gel electrophoresis (SDS-PAGE) sample buffer (Nacalai Tesque, Inc.) at a ratio of 5:1, boiled for 5 min, and used as a detection sample of APPsα which is a metabolite of APP by α-secretase and APPsβ which is a metabolite of APP by β-secretase in western blot analysis.
The PVDF membrane after transfer was washed with a wash buffer and immersed in a blocking buffer to prevent non-specific binding of the primary antibody, and a blocking reaction was performed at room temperature for 1 hr. Thereafter, it was reacted with a primary antibody (APPsα, anti-human APPsα mouse monoclonal antibody (2B3, Immuno-Biological Laboratories Co., Ltd., Gunma, Japan) (3 μg/mL); APPsβ, anti-APPsβ, rabbit polyclonal antibody, 1 μg/mL) to perform an antigen-antibody-reaction at 4° C. for not less than 16 hr. […]
as §1

[7] = tested on: neprilysin; test: neprilysin activity staining of primary culture nerve cells; format: cell-based; details: mouse primary culture nerve cells, 48 hr; Minocycline 5 μM, Somatostatin and Harmine 1 μM, others 10 μM (FIG. 4C)
Description: This is a method of measuring the amount of neprilysin localized on the cell membrane surface by using cultured cells. Since Aβ is secreted extracellularly, the more neprilysin is present on the cell membrane, the more efficiently Aβ can be degraded and removed. The following procedure was performed according to a previous report (JP-A-2004-151079; Saito T., Iwata N., et al., Nat. Med. 11(4), 434-439, 2005).
Nerve cells prepared from mouse embryocerebral cortex and hippocampus were cultured and fixed, and reacted with a substrate. After completion of the reaction, aminopeptidase-phosphoramidon mixture and nitrosalicylaldehyde solution were sequentially added and reacted. For the cells after completion of the reaction, positively stained images were observed using a filter for argon laser and rhodamine under a confocal laser microscope. More conveniently, it is also possible to observe positively stained images by using a FITC filter under a fluorescence microscope. When the substrate is degraded by neprilysin, an insoluble fluorescence reaction product is formed, and the site where neprilysin is present is visualized in yellow (pseudocolor and could be green). When the cells are stained by this method, the copresence of thiorphan, which is a specific inhibitor of neprilysin, causes disappearance of the positively stained images, and therefore, the presence of neprilysin on the cell surface of primary culture nerve cells of mouse embryocerebral cortex and hippocampus can be confirmed.
The nerve cells prepared from mouse embryocerebral cortex and hippocampus were cultured, the following test compounds were individually added at a given concentration from day 7 to day 21 of culture, and further cultured for 48 hr. After completion of the culture, the neprilysin activity of the mouse primary culture nerve cells was visualized and observed by the method shown in the above-mentioned 1. The stained images were quantified by an image analysis software (MetaMorph, ver. 7.7 (Universal Imaging Corporation, Downington, Pa.)) and studied. […]

[8] = coefficient of partition for octanol, in accordance with Fudouji et al. 2009; cited from earlier work
[9] = tested on: ADAM17; test: α-secretase mRNA expression, ADAM17 (real-time PCR); format: cell-based, human; details: control = 1
Description: In the same manner as in the above-mentioned 2, total RNA was prepared using a High Pure RNA Isolation kit (Roche 11828665001) from the cells to be the test target cells, which were treated with each polyphenol derivative and cultured, and subjected to a reverse transcription reaction using PrimeScript RT-PCR kit (TaKaRaRR014A) to give a sample (cDNA) for real-time PCR.
The prepared sample, Premix Ex taq (Perfect Real Time) (TaKaRaRR039A) and a probe, and a primer were mixed in a tube (TaKaRa SC910A), and real-time PCR reaction (initial denaturation: 95° C. 30 sec, PCR reaction: 95° C. 5 sec, 60° C. 20 sec, 40 times) was performed by Smart Cycler II System machine (TaKaRa).
The 5′-terminus of the probe was modified by a fluorescent substance FAM, and the 3′-terminus was modified by a quencher substance TAMRA, respectively.

Structure (SMILES) | α-secretase activity [1] | neprilysin activity potentiating action [2] | expression amount of neprilysin at the protein level [3] | β-secretase activity, remaining relative to control [4] | modulator class (neprilysin / α-secretase / β-secretase) [5] | extracellularly secreted APPsα/APPsβ ratio [6] | neprilysin activity potentiating action (activity staining) [7] | log P octanol [8] | ADAM17 expression at the mRNA level [9]
C/C(=C\Cc1c(C(=O)O[C@@H]2Cc3c(O)cc(O)cc3O[C@@H]2c2cc(O)c(O)c(O)c2)cc(O)c(O)c1O)CCCC(C)CCCC(C)CCCC(C)C (some centres unmarked) [NUP-18] | about 1.2 times that of control | about 3.8 times that of control | about 3.8 times that of control | about 43 % that of control | triple modulator | about 2.1 times that of control | – | – | –
CN(C)CCCN1c2ccccc2Sc2ccc(Cl)cc21 [Chlorpromazine] | – | – | – | – | – | – | neprilysin activity potentiating action | – | –
COc1ccc2c(c1)[nH]c1c(C)nccc12 [Harmine] | – | – | – | – | – | – | neprilysin activity potentiating action | – | –
CC(C)=CCC/C(C)=C/Cc1c(O)cc(O)c2c1O[C@H](c1cc(O)c(O)c(O)c1)[C@H](OC(=O)c1cc(O)c(O)c(O)c1)C2 [NUP-16] | about 1.7 times that of control | about 1.8 times that of control | about 1.8 times that of control | – | double modulator | about 1.6 times that of control | – | 2.55 | about 1.2 times that of control
Oc1ccc(/C=C/c2cc(O)cc(O)c2)cc1 [Resveratrol] | – | about 1.4 times that of control | – | – | – | – | neprilysin activity potentiating action | – | –

Reference: patent US9980937B2, “Therapeutic agent for Alzheimer's disease” (NAGASAKI UNIVERSITY, priority 2014, dated 2018)
